From patent US7935722B2 (Eli Lilly and Company, priority 2005, dated 2011)
Where two headings read alike, the source gives them in different places.

Tests used:
[1] = target: T1, human androgen receptor (AR) (Homo sapiens, UniProt P10275); experiment: C2C12 AR/ARE reporter assay; assay type: cell-based
T1 construct: expressed in transfected cells; host or cells: mouse myoblast C2C12 cells, transiently co-transfected
T1 sequence (P10275 1-920): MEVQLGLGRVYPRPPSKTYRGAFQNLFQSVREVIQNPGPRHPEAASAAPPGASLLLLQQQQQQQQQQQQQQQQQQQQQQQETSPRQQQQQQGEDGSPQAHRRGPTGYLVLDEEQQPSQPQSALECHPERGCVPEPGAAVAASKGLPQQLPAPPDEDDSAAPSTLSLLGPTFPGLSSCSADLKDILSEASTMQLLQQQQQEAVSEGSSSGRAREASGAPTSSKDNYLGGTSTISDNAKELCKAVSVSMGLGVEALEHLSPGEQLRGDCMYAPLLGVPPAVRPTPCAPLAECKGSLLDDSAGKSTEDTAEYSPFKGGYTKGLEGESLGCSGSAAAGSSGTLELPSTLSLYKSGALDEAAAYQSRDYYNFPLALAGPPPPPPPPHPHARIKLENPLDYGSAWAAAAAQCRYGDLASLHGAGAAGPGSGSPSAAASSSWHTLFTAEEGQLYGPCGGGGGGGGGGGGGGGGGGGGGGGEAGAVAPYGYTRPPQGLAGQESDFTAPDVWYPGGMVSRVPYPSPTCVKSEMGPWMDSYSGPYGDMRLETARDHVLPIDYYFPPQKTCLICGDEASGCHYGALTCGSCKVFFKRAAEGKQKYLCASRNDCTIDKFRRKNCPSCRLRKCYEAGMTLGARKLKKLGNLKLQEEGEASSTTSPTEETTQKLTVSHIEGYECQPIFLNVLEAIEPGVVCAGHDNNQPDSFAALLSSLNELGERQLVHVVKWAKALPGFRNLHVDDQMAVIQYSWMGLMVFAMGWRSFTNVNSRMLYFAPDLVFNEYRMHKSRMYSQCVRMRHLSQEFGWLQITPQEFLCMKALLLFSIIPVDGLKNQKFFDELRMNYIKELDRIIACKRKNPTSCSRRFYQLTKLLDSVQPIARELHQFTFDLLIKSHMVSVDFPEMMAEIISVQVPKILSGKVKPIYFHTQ
Method: As an indicator of agonist activity in muscle tissue, the C2C12 AR/ARE reporter assay is performed. Briefly, mouse myoblast C2C12 cells are co-transfected using FuGENE™. […] Cells are transfected in T150 cm^2 flasks in DMEM media with 4% or 10% Fetal Bovine Serum […]. After a 5 hour incubation, transfected cells are trypsinized, plated in 96 well dishes in DMEM media containing 10% charcoal-stripped FBS, incubated for 2 h and then exposed to various concentrations of test compounds ranging from about 0.01 nM to 10 μM. After 48 h of incubations with compounds, cells are lysed and luciferase activity is determined using standard techniques. Data is fit to a 4 parameter-fit logistics to determine EC50 values. The % efficacy is determined versus maximum stimulation obtained with 10 nM methyltrienolone. […]

[2] = target: T2, human AR (androgen receptor) (Homo sapiens, UniProt P10275); experiment: Steroid hormone nuclear receptor binding assay, AR binding
T2 construct: expressed in transfected cells; host or cells: 293 cells (293-AR lysate)
T2 sequence (P10275 1-920): T1 sequence (P10275 1-920)
Method: Cell lysates from 293 cells overexpressing human GR (glucocorticoid receptor), AR (androgen receptor), MR (mineralocorticoid receptor) or PR (progesterone receptor) are used for competition binding assays to determine Ki values for test compounds. […] Competing compounds are added at various concentrations ranging from about 0.01 nM to 10 μM. Non-specific binding is determined in the presence of 500 nM dexamethasone for GR binding, 500 nM aldosterone for MR binding, or 500 nM methyltrienolone for AR and PR binding. The binding reaction (140 μl) is incubated for overnight at 4° C., then 70 μl of cold charcoal-dextran buffer (containing per 50 ml of assay buffer, 0.75 g of charcoal and 0.25 g of dextran) is added to each reaction. Plates are mixed 8 minutes on an orbital shaker at 4° C. Plates are then centrifuged at 3,000 rpm at 4° C. for 10 minutes. An aliquot of 120 μl of the mix is transferred to another 96-well plate and 175 μl of Wallac Optiphase “Hisafe 3” scintillation fluid is added to each well. Plates are sealed and shaken vigorously on an orbital shaker. After an incubation of 2 hrs, plates are read in a Wallac Microbeta counter. […] The Kd for ^3H-dexamethasone for GR binding, ^3H-methyltrienolone for AR binding, ^3H-aldosterone for MR binding, or ^3H-methyltrienolone for PR binding, is determined by saturation binding. The IC50 values for test compounds are converted to Ki using Cheng-Prusoff equation and the Kd determined by saturation binding assay. […]

[3] = C2C12, read-out: C2C12 % Efficacy
[4] = C2C12 AR/ARE reporter assay, average of n trials, read-out: C2C12 % Efficacy
[5] = C2C12 AR/ARE reporter assay, average of n trials, read-out: C2C12 EC50
[6] = average of n trials, read-out: AR binding Ki

| Structure (SMILES) | EC50 [1] [nM] | Emax [1, 3] [%] | Ki [2] [nM] | Emax [1, 4] [%] | EC50 [1, 5] [nM] | Ki [2, 6] [nM] | C2C12 % Efficacy ([1]; C2C12 AR/ARE reporter assay, average of n trials) [%] |
| --- | --- | --- | --- | --- | --- | --- | --- |
| CC(C)C(=O)NC1CCc2c(c3cc(C#N)ccc3n2Cc2ccccc2NS(C)(=O)=O)C1 (stereo not drawn) [Example 113, N-[6-Cyano-9-(2-methanesulfonylamino-benzyl)-2,3,4,9-tetrahydro-1H-carbazol-3-yl]-isobutyramide] | 35.8 | 97.7 | 21.4 |  |  |  |  |
| CC(C)C(=O)N[C@@H]1CCc2c(c3cc(C#N)ccc3n2Cc2ccccn2)C1 [Example 161, (R)-N-(6-cyano-9-pyridin-2-ylmethyl-2,3,4,9-tetrahydro-1H-carbazol-3-yl)-isobutyramide] | 3.1 | 95.7 | 6.8 |  |  |  |  |
| CC(C)C(=O)NC1CCc2c(c3cc(Br)cc(F)c3n2Cc2cccc(F)c2)C1 (stereo not drawn) [Example 120, N-[6-Bromo-8-fluoro-9-(3-fluoro-benzyl)-2,3,4,9-tetrahydro-1H-carbazol-3-yl]-isobutyramide] | 51.4 | 101 | 7 |  |  |  |  |
| COc1ccc2c(c1)c1c(n2Cc2ccc(Cl)cc2)CCC(NC(=O)C(C)C)C1 (stereo not drawn) [Example 71] | 402 | 40.7 | 82.5 |  |  |  |  |
| CO/N=C/c1ccc2c(c1)c1c(n2Cc2cccc(F)c2)CCC(NC(=O)C2CC2)C1 (stereo not drawn) [Example 202, Cyclopropanecarboxylic acid[9-(3-fluorobenzyl)-6-(methoxyimino-methyl)-2,3,4,9-tetrahydro-1H-carbazol-3-yl]-amide] | 1.5 | 90.5 | 4.7 |  |  |  |  |
| Cc1ccc(-c2ccc3c(c2)c2c(n3Cc3cccc(F)c3)CCC(NC(=O)C(C)C)C2)nn1 (stereo not drawn) [Example 139, N-[9-(3-Fluoro-benzyl)-6-(6-methyl-pyridazin-3-yl)-2,3,4,9-tetrahydro-1H-carbazol-3-yl]-isobutyramide] |  |  |  | 96.9 | 19.4 | 34.9 |  |
| CC(C)C(=O)NC1CCc2c(c3cc(C#N)ccc3n2Cc2ccc(Cl)s2)C1 (stereo not drawn) [Example 148, N-[9-(5-Chloro-thiophen-2-ylmethyl)-6-cyano-2,3,4,9-tetrahydro-1H-carbazol-3-yl]-isobutyramide] |  |  |  | 86.7 | 23.8 | 7.3 |  |
| COc1ccc2c(c1)c1c(n2Cc2ccccc2F)CCC(NC(=O)C(C)C)C1 (stereo not drawn) [Example 78] | 238 | 71.5 | 187 |  |  |  |  |
| COc1ccc2c(c1)c1c(n2Cc2ccncc2)CCC(NC(=O)C(C)C)C1 (stereo not drawn) [Example 145] | 2050 | 46.6 | 1400 |  |  |  |  |
| CC(C)C(=O)NC1CCc2c(c3cc(C(F)F)ccc3n2Cc2cccc(F)c2)C1 (stereo not drawn) [Example 198, N-[6-Difluoromethyl-9-(3-fluoro-benzyl)-2,3,4,9-tetrahydro-1H-carbazol-3-yl]-isobutyramide] |  |  |  | 102 | 11 | 3.2 |  |
| CC(C)C(=O)N[C@@H]1CCc2c(c3cc(C#N)ccc3n2Cc2ccccc2N)C1 (single isomer, unassigned) [Example 110, R-N-[9-(2-Amino-benzyl)-6-cyano-2,3,4,9-tetrahydro-1H-carbazol-3-yl]-isobutyramide] | 1.8 | 110 | 4.8 |  |  |  |  |
| CC(C)C(=O)NC1CCc2c(c3cc(C#N)ccc3n2Cc2csc(Cl)n2)C1 (stereo not drawn) [Example 153, N-[9-(2-Chloro-thiazol-4-ylmethyl)-6-cyano-2,3,4,9-tetrahydro-1H-carbazol-3-yl]-isobutyramide] | 19.3 | 93.3 | 7.8 |  |  |  |  |
| O=C(NC1CCc2c(c3cc(OC(F)(F)F)ccc3n2Cc2cccc(F)n2)C1)C1CC1 (stereo not drawn) [Example 163] |  |  |  | 75.2 | 37.3 | 12.7 |  |
| CO/N=C/c1ccc2c(c1)c1c(n2Cc2csc(C)n2)CC[C@@H](NC(=O)C(C)C)C1 [Example 212, (R)-N-[6-(Methoxyimino-methyl)-9-(2-methyl-thiazol-4-ylmethyl)-2,3,4,9-tetrahydro-1H-carbazol-3-yl]-isobutyramide] | 7.8 | 90.4 | 16.7 |  |  |  |  |
| COc1ccc2c(c1)c1c(n2Cc2cccc(F)c2)CCC(NC(=O)C(C)C)C1 (stereo not drawn) [Example 79, N-[9-(3-fluoro-benzyl)-methoxy-2,3,4,9-tetrahydro-1H-carbazol-3-yl]-isobutyramide] |  |  |  |  | 16.4 | 28.2 | 85.7 |
| CC(C)C(=O)NC1CCc2c(c3cc(C#N)c(F)cc3n2Cc2cccc(F)c2)C1 (stereo not drawn) [Example 115, N-[6-Cyano-7-fluoro-9-(3-fluoro-benzyl)-2,3,4,9-tetrahydro-1H-carbazol-3-yl]-isobutyramide] | 4.3 | 74.7 | 3.2 |  |  |  |  |
| CC(C)C(=O)NC1CCc2c(c3cc(C#N)ccc3n2Cc2ccccc2[N+](=O)[O-])C1 (stereo not drawn) [Example 108, N-[6-Cyano-9-(2-nitro-benzyl)-2,3,4,9-tetrahydro-1H-carbazol-3-yl]-isobutyramide] | 718 | 58.4 | 57.3 |  |  |  |  |
| CC(C)C(=O)NC1CCc2c(c3cc(-c4cccnn4)ccc3n2Cc2cccc(F)c2)C1 (stereo not drawn) [Example 138] |  |  |  | 86.8 | 31.1 | 47.3 |  |
| Cc1nc(Cn2c3c(c4cc(C#N)ccc42)C[C@@H](NC(=O)C(C)C)CC3)cs1 [Example 152, (S)-N-[6-cyano-9-(2-methyl-thiazol-4-ylmethyl)-2,3,4,9-tetrahydro-1H-carbazol-3-yl]-isobutyramide] | 409 | 61.1 | 208 |  |  |  |  |
| CC(C)C(=O)NC1CCc2c(c3cc(-c4cnc(N)s4)ccc3n2Cc2cccc(F)c2)C1 (stereo not drawn) [Example 140] | 44 | 74.6 | 29 |  |  |  |  |
| CC(C)C(=O)NC1CCc2c(c3cc(C#N)cc(Cl)c3n2Cc2cccc(F)c2)C1 (stereo not drawn) [Example 119, N-[8-Chloro-6-cyano-9-(3-fluoro-benzyl)-2,3,4,9-tetrahydro-1H-carbazol-3-yl]-isobutyramide] |  |  |  | 99.1 | 34.2 | 7.3 |  |
| COC(=O)NC1CCc2c(c3cc(C#N)ccc3n2Cc2cccc(F)c2)C1 (stereo not drawn) [Example 184, [6-Cyano-9-(3-fluoro-benzyl)-2,3,4,9-tetrahydro-1H-carbazol-3-yl]-carbamic acid methyl ester] | 27.3 | 78.9 | 2.8 |  |  |  |  |
| CC(C)C(=O)NC1CCc2c(c3cc(C#N)ccc3n2Cc2cncs2)C1 (stereo not drawn) [Example 159, N-(6-Cyano-9-thiazol-5-ylmethyl-2,3,4,9-tetrahydro-1H-carbazol-3-yl)-isobutyramide] | 35.8 | 80.9 | 34.4 |  |  |  |  |
| CC(C)C(=O)NC1CCc2c(c3cc(Cl)ccc3n2Cc2cccc(O)c2)C1 (stereo not drawn) [Example 102, N-[^6-Chloro-9-(3-hydroxy-benzyl)-2,3,4,9-tetrahydro-1H-carbazol-3-yl]-isobutyramide] | 300 | 39.6 | 16.8 |  |  |  |  |
